Tested on: mice
Assay: tail-flick test, analgesia (nociceptive response) after intravenous injection
Assay type: in vivo, mouse
Conditions: 7.0 mg/kg loperamide, cut-off ten seconds = 100% MPE
Procedure: The preparations were applied intravenously to mice, at a dosage of 7.0 mg/kg loperamide. Based on an average body weight of a mouse of 20 g, the animals received an application amount of 200 μl of the above-mentioned preparation.
With the aid of this system, the analgesic effects shown in FIG. 1 were achieved after intravenous injection using the above-mentioned active agent loperamide. Analgesia (Nociceptive Response) was detected by the tail-flick test, wherein a hot beam of light is projected onto the tail of the mouse and the time that passes until the mouse flicks away its tail is measured. After ten seconds (=100% MPE) the experiment is discontinued so as not to cause injury to the mouse. Negative MPE values occur in those cases where following administration of the preparation, the mouse flicks away its tail earlier than before the treatment.
As a comparison, a loperamide solution 0.7 mg/ml in 2.6%-vol. ethanol was used.

In the case of `CN(C)C(=O)C(CCN1CCC(O)(c2ccc(Cl)cc2)CC1)(c1ccccc1)c1ccccc1` [loperamide], the “analgesic effect (maximal possible effect, MPE)” value is reported as “no analgesic effect”.
